The results in this text go back to patent US11312705B2, “Heteroaryl[4,3-C]pyrimidine-5-amine derivative, preparation method therefor, and medical uses thereof” (Jiangsu Hengrui Medicine Co., Ltd., priority 2017, dated 2022).

Common to all, as to format: cell-based
Experiment [1] concerns the target adenosine A2a receptor (A2aR) (Homo sapiens (Human), UniProt P29274). Briefly: Inhibition of adenosine A2a receptor cAMP signaling pathway (HTRF cAMP, CHO-K1/A2aR cells). From the text: (§1) Test Example 1. Determination of the inhibition activity of the compounds of the present invention on the adenosine A2a receptor (A2aR) cAMP signaling pathway, the adenosine A2b receptor (A2bR) cAMP signaling pathway, the adenosine A1 receptor (A1R) cAMP signaling pathway and the adenosine A3 receptor (A3R) cAMP signaling pathway.
(§2) The inhibition activity of the compounds of the present invention on the adenosine A2a receptor cAMP signaling pathway, the adenosine A2b receptor cAMP signaling pathway, the adenosine A1 receptor cAMP signaling pathway and the adenosine A3 receptor cAMP signaling pathway was determined by the following method. The experimental method is briefly described as follows:
2.1 Adenosine A2a Receptor
CHO-K1/A2aR cells were cultured in DMEM/F12 medium containing 10% fetal bovine serum and 800 μg/ml bleomycin. The cells were digested with the cell separation buffer during the experiment. The cells were resuspended in the balanced salt buffer containing 20 mM HEPES and 0.1% bovine serum albumin and counted, and the cell density was adjusted to 10^6 cells/ml. In the 384-well plate, each well was added with 5 μl of cell suspension, and 2.5 μl of test compound (4× concentration) formulated with the balanced salt buffer containing 20 mM HEPES, 0.1% bovine serum albumin, 54 μM rolipram and 2.7 U/ml adenosine deaminase, and the plate was incubated at room temperature for 30 minutes. Each well was then added with 2.5 μl of […] (4× concentration) formulated with the balanced salt buffer containing 20 mM HEPES, 0.1% bovine serum albumin, 54 μM rolipram and 2.7 U/ml adenosine deaminase, and the plate was incubated at room temperature for 30 minutes. The final concentrations of the compounds were: 10000, 2000, 400, 80, 16, 3.2, 0.64, 0.128, 0.0256, 0.00512, and 0.001024 nM. The final concentration of […] was 20 nM. Intracellular cAMP concentration was detected with the cAMP dynamic 2 kit. cAMP-d2 and Anti-cAMP-Eu-Cryptate were diluted respectively with the cAMP lysis buffer at a ratio of 1:4. Each well was added with 5 μl of diluted cAMP-d2, followed by addition of 5 μl of diluted Anti-cAMP-Eu-Cryptate, and the plate was incubated at room temperature in the dark for 1 hour. The HTRF signal values were read by the PHERAstar multi-function microplate reader.

Experiment [2] deals with adenosine A1 receptor (A1R) (Homo sapiens (Human), UniProt P30542). Briefly: Inhibition of adenosine A1 receptor cAMP signaling pathway (HTRF cAMP, CHO-K1/A1R cells). The conditions noted are these: Table 2; for IC50: CHO-K1/A1R cells, forskolin 10 μM, CPA 10 nM, cAMP HTRF; for IC50 ratio (A1R/A2aR): selectivity A1R over A2aR.
Sequence of adenosine A1 receptor (A1R) (P30542 whole entry): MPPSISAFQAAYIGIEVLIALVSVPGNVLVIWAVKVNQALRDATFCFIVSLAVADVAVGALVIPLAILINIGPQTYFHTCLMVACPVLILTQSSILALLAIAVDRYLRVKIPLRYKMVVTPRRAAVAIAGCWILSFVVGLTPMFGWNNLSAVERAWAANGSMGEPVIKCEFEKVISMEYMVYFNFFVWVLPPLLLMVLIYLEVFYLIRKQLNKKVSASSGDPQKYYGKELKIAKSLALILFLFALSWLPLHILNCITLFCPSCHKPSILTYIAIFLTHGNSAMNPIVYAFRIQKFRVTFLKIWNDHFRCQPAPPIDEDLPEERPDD
Description: as §1, §2
2.2 Adenosine A1 receptor
(§3) CHO-K1/A1R cells were cultured in DMEM/F12 medium containing 10% fetal bovine serum and 1 mg/ml G418. The cells were digested with the cell separation buffer during the experiment. The cells were then resuspended in the balanced salt buffer containing 20 mM HEPES and 0.1% bovine serum albumin and counted, and the cell density was adjusted to 5×10^5 cells/ml. In the 384-well plate, each well was added with 12.5 μl of cell suspension, and 6.25 μl of test compound (4× concentration) formulated with the balanced salt buffer containing 20 mM HEPES, 0.1% bovine serum albumin, 54 μM rolipram and 2.7 U/ml adenosine deaminase, and the plate was incubated at room temperature for 30 minutes. Each well was then added with 6.25 μl of forskolin and N6-cyclopentyladenosine (4× concentration) formulated with the balanced salt buffer containing 20 mM HEPES, 0.1% bovine serum albumin, 54 μM rolipram and 2.7 U/ml adenosine deaminase, and the plate was incubated at room temperature for 30 minutes. The final concentrations of the compounds were: 100000, 10000, 1000, 100, 10, 1, 0.1 and 0 nM. The final concentration of forskolin was 10 μM. The final concentration of CPA was 10 nM. Intracellular cAMP concentration was detected with the cAMP dynamic 2 kit. cAMP-d2 and Anti-cAMP-Eu-Cryptate were diluted respectively with the cAMP lysis buffer at a ratio of 1:4. Each well was added with 12.5 μl of diluted cAMP-d2, followed by addition of 12.5 μl of diluted Anti-cAMP-Eu-Cryptate, and the plate was incubated at room temperature in the dark for 1 hour. The HTRF signal values were read by the PHERAstar multi-function microplate reader.

For experiment [3], the target named is adenosine A3 receptor (A3R) (Homo sapiens (Human), UniProt P0DMS8). The experiment in a line: Inhibition of adenosine A3 receptor cAMP signaling pathway (HTRF cAMP, CHO-K1/A3R cells). The note with it: Table 2; for IC50: CHO-K1/A3R cells, forskolin 10 μM, 2Cl-IB-MECA 5 nM, cAMP HTRF.
Sequence of adenosine A3 receptor (A3R) (P0DMS8 whole entry): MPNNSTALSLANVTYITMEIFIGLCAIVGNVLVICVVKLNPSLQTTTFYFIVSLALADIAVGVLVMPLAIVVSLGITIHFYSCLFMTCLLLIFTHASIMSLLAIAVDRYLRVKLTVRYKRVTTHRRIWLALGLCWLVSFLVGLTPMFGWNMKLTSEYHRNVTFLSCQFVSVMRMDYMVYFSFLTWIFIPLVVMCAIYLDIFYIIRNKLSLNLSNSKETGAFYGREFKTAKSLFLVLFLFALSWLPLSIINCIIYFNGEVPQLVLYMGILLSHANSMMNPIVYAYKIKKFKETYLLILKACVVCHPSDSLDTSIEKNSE
Description: as §1, §2
2.3 Adenosine A3 receptor
as §3, with “CHO-K1/A3R cells were” for “CHO-K1/A1R cells were”, “serum and 10 μg/ml puromycin. The cells” for “serum and 1 mg/ml G418. The cells”, “cells were resuspended in” for “cells were then resuspended in”, “forskolin and 2Cl-IB-MECA (4× concentration)” for “forskolin and N6-cyclopentyladenosine (4× concentration)”, “concentration of 2Cl-IB-MECA was 5” for “concentration of CPA was 10”, “2Cl-IB-MECA was 5 nM. Intracellular” for “CPA was 10 nM. Intracellular”

Experiment [4] has as its target adenosine A2b receptor (A2bR) (Homo sapiens (Human), UniProt P29275). The experiment in a line: Inhibition of adenosine A2b receptor cAMP signaling pathway (HTRF cAMP, CHO-K1/A2bR cells). The note with it: Table 3; for IC50: CHO-K1/A2bR cells, ethyl carbazole 1 μM, cAMP HTRF; for IC50 ratio (A2bR/A2aR): selectivity A2bR over A2aR.
Description: as §1, §2
2.4 Adenosine A2b receptor (A2bR)
CHO-K1/A2bR cells were cultured in DMEM/F12 medium containing 10% fetal bovine serum and 1 mg/ml G418. The cells were digested with the cell separation buffer during the experiment. The cells were resuspended in the balanced salt buffer containing 20 mM HEPES and 0.1% bovine serum albumin and counted, and the cell density was adjusted to 10^6 cells/ml. In the 384-well plate, each well was added with 5 μl of cell suspension, and 2.5 μl of test compound (4× concentration) formulated with the balanced salt buffer containing 20 mM HEPES, 0.1% bovine serum albumin, 54 μM rolipram and 2.7 U/ml adenosine deaminase, and the plate was incubated at room temperature for 30 minutes. Each well was then added with 2.5 μl of […] (4× concentration) (Torcis, 1691/10) formulated with the balanced salt buffer containing 20 mM HEPES, 0.1% bovine serum albumin, 54 μM rolipram and 2.7 U/ml adenosine deaminase, and the plate was incubated at room temperature for 30 minutes. The final concentrations of the compounds were: 100000, 10000, 1000, 100, 10, 1, 0.1 and 0 nM. The final concentration of […] was 1 μM. Intracellular cAMP concentration was detected with the cAMP dynamic 2 kit. cAMP-d2 and Anti-cAMP-Eu-Cryptate were diluted respectively with the cAMP lysis buffer at a ratio of 1:4. Each well was added with 5 μl of diluted cAMP-d2, followed by addition of 5 μl of diluted Anti-cAMP-Eu-Cryptate, and the plate was incubated at room temperature in the dark for 1 hour. The HTRF signal values were read by the PHERAstar multi-function microplate reader.

Sequence of adenosine A2b receptor (A2bR) (P29275 whole entry): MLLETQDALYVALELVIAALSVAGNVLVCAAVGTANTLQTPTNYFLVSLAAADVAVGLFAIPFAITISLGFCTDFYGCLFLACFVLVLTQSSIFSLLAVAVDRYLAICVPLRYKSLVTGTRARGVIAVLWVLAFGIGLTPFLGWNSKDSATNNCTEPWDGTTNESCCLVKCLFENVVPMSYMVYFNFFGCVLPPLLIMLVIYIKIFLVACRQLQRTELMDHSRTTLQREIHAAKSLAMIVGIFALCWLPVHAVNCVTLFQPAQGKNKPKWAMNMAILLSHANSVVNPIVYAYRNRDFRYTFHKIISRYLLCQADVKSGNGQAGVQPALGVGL
Sequence of adenosine A2a receptor (A2aR) (P29274 whole entry): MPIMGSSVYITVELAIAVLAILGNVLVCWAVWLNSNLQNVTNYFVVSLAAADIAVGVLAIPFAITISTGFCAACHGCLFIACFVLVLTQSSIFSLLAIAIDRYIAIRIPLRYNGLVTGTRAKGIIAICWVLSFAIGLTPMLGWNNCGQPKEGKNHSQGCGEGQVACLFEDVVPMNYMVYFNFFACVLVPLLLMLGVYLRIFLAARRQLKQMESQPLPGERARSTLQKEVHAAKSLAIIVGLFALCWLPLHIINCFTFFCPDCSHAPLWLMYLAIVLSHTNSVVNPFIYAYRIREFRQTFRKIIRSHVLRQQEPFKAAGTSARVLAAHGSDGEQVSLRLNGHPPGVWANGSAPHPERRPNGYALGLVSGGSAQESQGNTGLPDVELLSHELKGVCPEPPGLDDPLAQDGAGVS

For the compound `Cc1cc(-c2c(-c3ccccc3)nc(N)n3cnnc23)cc(Cl)n1` [Example 4, 8-(2-Chloro-6-methylpyridin-4-yl)-7-phenyl-[1,2,4]triazolo[4,3-c]pyrimidin-5-amine], the IC50 in experiment [1] (Table 1, ethyl carbazole 20 nM) was 0.08 nM; in experiment [1] (Table 2, ethyl carbazole 20 nM), 0.08 nM; in experiment [1] (Table 3, ethyl carbazole 20 nM) it was 0.08 nM; in experiment [2], 37 nM; in experiment [3] it was above 10000 nM; in experiment [4], 82.6 nM. Further, the “IC50 ratio (A1R/A2aR)” value in experiment [2] was found to be 463. Besides, the “IC50 ratio (A3R/A2aR)” value in experiment [3] was >1.3 × 10^5. In addition, in experiment [4], the “IC50 ratio (A2bR/A2aR)” value is 1032.

`Cc1cc(-c2c(-c3ccccc3F)nc(N)n3cnnc23)cc(C)n1` [Example 19, 8-(2,6-Dimethylpyridin-4-yl)-7-(2-fluorophenyl)-[1,2,4]triazolo[4,3-c]pyrimidin-5-amine]: the IC50 in experiment [1] (Table 1, ethyl carbazole 20 nM) was 0.96 nM; in experiment [1] (Table 2, ethyl carbazole 20 nM) it was 0.96 nM; in experiment [1] (Table 3, ethyl carbazole 20 nM) it was 0.96 nM; in experiment [2], 173 nM; in experiment [3] it was above 10000 nM; in experiment [4], 85.4 nM. Besides, the “IC50 ratio (A1R/A2aR)” value in experiment [2] was determined as 180. Further, the “IC50 ratio (A3R/A2aR)” value in experiment [3] is >10^4. In experiment [4], the “IC50 ratio (A2bR/A2aR)” value worked out at 89.

Consider `Cc1cc(-c2c(-c3ccc(F)cc3)nc(N)n3cnnc23)cc(C)n1` [Example 28, 8-(2,6-Dimethylpyridin-4-yl)-7-(4-fluorophenyl)-[1,2,4]triazolo[4,3-c]pyrimidin-5-amine], for which the concentration for half-maximal inhibition (IC50) in experiment [1] (Table 1, ethyl carbazole 20 nM) was 0.52 nM; in experiment [1] (Table 2, ethyl carbazole 20 nM), 0.52 nM; in experiment [2] it was 66 nM; in experiment [3], above 10000 nM. Moreover, the “IC50 ratio (A1R/A2aR)” value in experiment [2] is 127. For the same compound, in experiment [3], the “IC50 ratio (A3R/A2aR)” value was >1.9 × 10^4.

In the case of `Cc1cc(-c2c(-c3ccc(F)cc3)nc(N)n3cnnc23)cc(C(F)F)n1` [Example 51, 8-(2-(Difluoromethyl)-6-methylpyridin-4-yl)-7-(4-fluorophenyl)-[1,2,4]triazolo[4,3-c]pyrimidin-5-amine], the IC50 was 0.36 nM in experiment [1] (Table 1, ethyl carbazole 20 nM); 0.36 nM in experiment [1] (Table 2, ethyl carbazole 20 nM); 418 nM in experiment [2]; above 10000 nM in experiment [3]. For the same compound, the “IC50 ratio (A1R/A2aR)” value in experiment [2] is recorded as 1161. Besides, in experiment [3], the “IC50 ratio (A3R/A2aR)” value is recorded as >10^4.

Turning to `Cc1cc(-c2c(-c3ccc(Cl)cc3)nc(N)n3cnnc23)cc(C(F)F)n1` [Example 52, 7-(4-Chlorophenyl)-8-(2-(difluoromethyl)-6-methylpyridin-4-yl)-[1,2,4]triazolo[4,3-c]pyrimidin-5-amine], the IC50 was 0.48 nM in experiment [1] (Table 1, ethyl carbazole 20 nM); 0.48 nM in experiment [1] (Table 2, ethyl carbazole 20 nM); 41 nM in experiment [2]; above 10000 nM in experiment [3]. Moreover, in experiment [2], the “IC50 ratio (A1R/A2aR)” value amounted to 85. In addition, in experiment [3], the “IC50 ratio (A3R/A2aR)” value is on record as >10^4.

`Cc1cc(-c2c(-c3ccc(F)cc3)nc(N)n3cnnc23)cc(CF)n1` [Example 55, 8-(2-(Fluoromethyl)-6-methylpyridin-4-yl)-7-(4-fluorophenyl)-[1,2,4]triazolo[4,3-c]pyrimidin-5-amine]: the IC50 in experiment [1] (Table 1, ethyl carbazole 20 nM) was 1.04 nM; in experiment [1] (Table 2, ethyl carbazole 20 nM) it was 1.04 nM; in experiment [1] (Table 3, ethyl carbazole 20 nM) it was 1.04 nM; in experiment [2], 222 nM; in experiment [3] it was above 10000 nM; in experiment [4] it was 78.2 nM. In addition, in experiment [2], the “IC50 ratio (A1R/A2aR)” value is 214. The “IC50 ratio (A3R/A2aR)” value in experiment [3] is >10^3. Further, the “IC50 ratio (A2bR/A2aR)” value in experiment [4] came out at 75.

`Cc1cc(-c2c(-c3ccccc3F)nc(N)n3cnnc23)cc(C(F)F)n1` [Example 56, 8-(2-(Difluoromethyl)-6-methylpyridin-4-yl)-7-(2-fluorophenyl)-[1,2,4]triazolo[4,3-c]pyrimidin-5-amine]: the half-inhibitory concentration (IC50) was 1.68 nM in experiment [1] (Table 1, ethyl carbazole 20 nM); 1.68 nM in experiment [1] (Table 2, ethyl carbazole 20 nM); 1.68 nM in experiment [1] (Table 3, ethyl carbazole 20 nM); 248 nM in experiment [2]; above 10000 nM in experiment [3]; 112 nM in experiment [4]. In addition, in experiment [2], the “IC50 ratio (A1R/A2aR)” value is listed as 148. For the same compound, the “IC50 ratio (A3R/A2aR)” value in experiment [3] is reported as >10^3. Moreover, the “IC50 ratio (A2bR/A2aR)” value in experiment [4] is recorded as 67.

For the compound `Cc1cc(-c2c(-c3ccccc3F)nc(N)n3cnnc23)cc(CF)n1` [Example 57, 8-(2-(Fluoromethyl)-6-methylpyridin-4-yl)-7-(2-fluorophenyl)-[1,2,4]triazolo[4,3-c]pyrimidin-5-amine], the IC50 in experiment [1] (Table 1, ethyl carbazole 20 nM) is 2.59 nM; in experiment [1] (Table 2, ethyl carbazole 20 nM) it was 2.59 nM; in experiment [1] (Table 3, ethyl carbazole 20 nM), 2.59 nM; in experiment [2], 302 nM; in experiment [3], above 10000 nM; in experiment [4], 209 nM. In addition, the “IC50 ratio (A1R/A2aR)” value in experiment [2] is reported as 117. In experiment [3], the “IC50 ratio (A3R/A2aR)” value is on record as >10^3. Further, in experiment [4], the “IC50 ratio (A2bR/A2aR)” value is reported as 81.
